Patent US20200171066A1, “EYE DROP FOR TREATING DRY EYE” (Xiamen University, priority 2017, published 2020)

Legend:
[1] = system: Patients with Sjogren's syndrome; settings: 0.03%; cited from earlier work
dry eye dogs = settings: 0.02% drops applied topically in the eye; cited from earlier work
[2] = cited from earlier work
NF-κB signaling pathway = settings: 0.025% applied topically to the eye, mice; cited from earlier work
[3] = system: corneal epithelial barrier of mice suffering dry eye; assay: Corneal OGD fluorescent staining in dry eye mouse model; assay type: in vivo, C57BL/6 mice; settings: 0.1% eye drop, 4 times a day on both eyes
Procedure: (§1) 1. Establish a dry eye mouse model: Female C57BL/6 mice of 10-12 weeks old were injected subcutaneously with scopolamine 0.5 mg/0.2 mL four times a day and kept in a dry environment for 5 days (RH: 30±3; T: 23-25° C.); normal control group was maintained in normal environment (RH: 60%-80%; T: 23-25° C.).
(§2) Preparation of mizoribine eye drop: dry eye treatment group used 0.1% of mizoribine eye drop prepared by the method of Embodiment 1.
(§3) Eye drop method: Eye drop treatment was performed using the above-mentioned eye drops 4 times a day on both eyes.
1. Corneal OGD fluorescent staining: mice were sacrificed, and 0.5 μl of Oregongreen-dextran (OGD) was dropped into the conjunctival sac of mice with a pipette, manual blinking was performed, and the conjunctival sac was washed with 1 mL of normal saline 1 minute later. The corneal epithelial fluorescence staining was observed and shot under a living fluorescence microscope.

[4] = system: conjunctival CD4+T cell infiltration; assay: Conjunctival CD4+T cell staining in dry eye mouse model; assay type: in vivo, C57BL/6 mice; settings: 0.1% eye drop, compared with the dry eye group
Procedure: as §1, §2, §3
3. Conjunctival CD4+T cell staining: fixing frozen sections by acetone at −20° C. for 10 minutes, disrupting with 0.2% of Triton-X PBS for 10 minutes, and using 0.3% of H2O2 to eliminate endogenous peroxidase, blocking with 20% of normal goat serum for 45 minutes. The primary anti-CD4 was incubated for 1 hour at room temperature. After extensive washing (digestion), the biotinylated (second) antibody was incubated for 30 minutes. Finally, a Vectastain Elite ABC kit was used to develop color and stain the nucleus.

IFN-γ = assay: Real-Time PCR of conjunctival RNA in dry eye mouse model; assay type: in vivo, C57BL/6 mice; settings: 0.1% eye drop, compared with the dry eye group
Procedure: as §1, §2, §3
(§4) Prepare the PCR reaction solution according to the following components:
(§5) Three-step PCR amplification standard procedure:
(§6) Stage 1: Pre-denaturation cycle number: 195° C., 30 sec.
(§7) Stage 2: number of PCR reaction cycles: 4095° C. for 5 sec. and 60° C. for 34 sec.
(§8) Stage 3: Dissolving curve
(§9) The relative expression level of the gene was analyzed by the relative Ct method, and the specific expression of the target gene was calculated by the following formula, that is to say, the relative expression level=2^−ΔΔCt; wherein −ΔΔCt=−(ΔCt, q−ΔCt, cb), ΔCt, q=Ct,x−Ct, r ΔCt, cb=Ct, cb−Ct, r, where r=reference gene, Cb=calibration value, X=target gene, and cycle threshold (C) is determined through primary signal (fluorescence).

TNF-α = assay: as above; assay type: in vivo, C57BL/6 mice; settings: 0.1% eye drop, compared with the dry eye group
Procedure: as §1, §2, §3, §4, §5, §6, §7, §8, §9

IL-1β = assay: as above; assay type: in vivo, C57BL/6 mice; settings: 0.1% eye drop, compared with the dry eye group
Procedure: as §1, §2, §3, §4, §5, §6, §7, §8, §9

IL-13 = assay: as above; assay type: in vivo, C57BL/6 mice; settings: 0.1% eye drop, compared with the dry eye group
Procedure: as §1, §2, §3, §4, §5, §6, §7, §8, §9

[5] = system: conjunctival goblet cells; assay: PAS staining of conjunctival goblet cells in dry eye mouse model; assay type: in vivo, C57BL/6 mice; settings: 0.1% eye drop, compared with the dry eye group
Procedure: as §1, §2, §3
2. PAS staining of conjunctival goblet cells: Paraffin specimens of the whole eyeballs (conjunctival sac) of the mice were cut into 5 um sections and stained with periodic acid-Schiff (PAS) reagent to observe the morphology and number of conjunctival goblet cells.

C=CC[C@@H]1/C=C(\C)C[C@H](C)C[C@H](OC)[C@H]2O[C@@](O)(C(=O)C(=O)N3CCCC[C@H]3C(=O)O[C@H](/C(C)=C/[C@@H]3CC[C@@H](O)[C@H](OC)C3)[C@H](C)[C@@H](O)CC1=O)[C@H](C)C[C@@H]2OC [FK506, tacrolimus]
tear film stability [1]: improve tear film stability | amount of tear secretion (dry eye dogs): significantly increase | solubility in water [2]: hardly soluble in water | activation of NF-κB signaling pathway (NF-κB signaling pathway): inhibit the activation of NF-κB signaling pathway | ocular surface signs of dry eye (NF-κB signaling pathway): reduce the ocular surface signs of dry eye

NC(=O)c1ncn([C@@H]2O[C@H](CO)[C@@H](O)[C@H]2O)c1O [mizoribine]
corneal flaky staining (OGD) [3]: no flaky staining was observed | number of corneal punctiform staining (OGD) ([3]; compared with the dry eye group): significantly reduced | proportion of brown-yellow cells (conjunctival CD4+T cells) [4]: significantly reduced | expression of conjunctival IFN-γ (IFN-γ): significantly decreased | expression of conjunctival TNF-α (TNF-α): significantly decreased | expression of conjunctival IL-1β (IL-1β): significantly decreased | expression of conjunctival IL-13 (IL-13): significantly decreased | number of conjunctival goblet cells (PAS) [5]: significant increase
